{
  "source": "patent US6632981B1",
  "about": "“DNA sequences encoding polypeptides having beta-1,3-glucanase activity” (Novartis Finance Corporation, priority 1988, dated 2003)",
  "key": {"[1]": {"test_system": "cucumber chitinase protein", "experiment": "Cucumber chitinase ELISA in transgenic plants carrying cucumber chitinase genomic constructs after leaf treatment", "assay_type": "in vivo, tobacco", "set-up": "key: —: Indicates that sample has no detectable level of chitinase protein", "description": "Once the transgenic plants are transferred to soil, they are grown 4-5 weeks before treatment. The following solutions are applied to the leaves with sterile paintbrushes:\n3. Methyl benzo-1,2,3-thiadiazole-7-carboxylate. The solution is made by resuspending a wettable powder containing a formulation of the chemical with 25% active ingredient in sterile water at a concentration of 1 mg/ml.\n4. Methyl 2,6-dichloroisonicotinate, prepared as above. Alternatively, 30 ul of 10 mM sodium phosphate buffer, pH 7.0, or 30 ul of the same buffer containing tobacco mosaic virus (50-100 pfu/30 ul) is applied to the leaves which have been sprinkled with carborundum. The buffers are distributed over the whole treated leaf by gentle rubbing.\nThe plants are allowed to continue to grow for seven days. The treated leaves are then harvested, frozen in liquid nitrogen and stored at −80° C. until they are assayed.\nFrozen leaf tissue is ground in a mortar with a pestle in the presence of liquid nitrogen to produce a fine powder. 0.33 g of each tissue sample is added to 1 ml extraction buffer (50 mM Tris-HCl, pH 8.5, 0.2M 2-mercaptoethanol, 2 mM phenyl methyl sulfonyl fluoride, 2 mM benzamidine, 10 mM epsilon-aminocaproic acid, 1 mM leueptine) and the sample homogenized for one minute with an Ultra Turrax Mixer (shaft #S25N-8G, Tekmar Co. Cincinnati, Ohio). The samples are then centrifuged at 48,000×g for fifteen minutes at 4° C. and the supernatant removed from the pelleted material. The extracts are diluted at least 1:50 in ELISA diluent (101 mM sodium phosphate, pH 7.4, 140 mM sodium chloride, 0.05% Tween 20, 0.02% sodium azide, 1% BSA).\nA microtiter plate is coated with monoclonal antibody specific to the cucumber chitinase protein at 2 ug/ml in borate-buffered saline (100 mM boric acid, 25mM sodium borate, 75 mM sodium chloride; pH 8.5) using 50 ul per well. The plate is incubated overnight at 4° C. The plate is washed with ELISA wash buffer (10 mM Tris-HCl, pH 8.0, 0.05% Tween 20, 3 mM sodium azide) and BSA blocking solution (10 mM sodium phosphate, pH 7.4, 140 mM sodium chloride, 0.02% sodium azide, 1% BSA) is added to completely cover each well. Incubation is for at least 30 minutes at room temperature.\nThe microtiter plate is washed with ELISA wash buffer and 50 ul of extract is added to the appropriate well. 50 ul of each of 10 chitinase protein standards (ranging from 0 ng/ml to 31.64 ng/ml) was also added to the appropriate well and the plate is incubated for two hours at 4° C. The plate is washed with ELISA wash buffer and 50 ul of rabbit polyclonal antibody to the cucumber chitainase protein (diluted 1:15,000 in ELISA diluent) is added to the well and incubated for one hour at 37° C. After washing with ELISA wash buffer, 50 ul of goat anti-rabbit conjugated to alkaline phosphatase (1:500 in ELISA diluent) is added to each well and incubated at 37° C. for one hour. The plate is then washed and 50 ul alkaline phosphatase substrate solution (0.6 mg/ml p-nitrophenyl phosphate in 0.5 mM magnesium chloride and 10% diethanolamine) is added to each well. After a 30 minute incubation at room temperature, 50 ul of 3N sodium hydroxide is added to each well to stop the reaction.\nThe plate is read at 405 nm and 492 nm on an HP Genenchem ELISA plate reader. The output values are expressed as A(405 nm)-A(492 nm)−0.092 to allow for correction of p-nitrophenyl phosphate as substrate. The chitinase standards for each plate are graphed logarithmically. The amount of chitinase protein in each sample is determined from the standard curve. If the amount of chitinase in any sample is close to the upper limit of the curve, the sample is assayed again at a greater dilution. Final results are expressed in the table below in ug chitinase per gram tissue."}, "[2]": {"test_system": "chemically regulatable chimeric genes coding for GUS, AHAS or BT", "experiment": "Primer extension assay for mRNA of chemically regulatable chimeric genes", "assay_type": "in vivo", "conditions": "callus or regenerated plant material from transgenic plants; level proportional to amount of regulator applied", "description": "50 g of total RNA is lyophilized in a 500 l Eppendorf tube. The RNA is resuspended in 30 l of radiolabeled probe solution and heated to 70′ C. for 10 minutes. The tube is slowly cooled to 37° C. and allowed to incubate overnight. Without removing the tube from the 37° C. water bath, 2 l of 10×reverse-transcriptase buffer (500 mM Tris-HCl, pH 7.5, 400 mM KCl, 30 mM MgCl2), 1 l 5 mg/ml bovine serum albumin, 5 l 100 mM dithiothreitol, 5 l 10×dNTPs (10 mM of each dNTP in H2O), 3 l H 20, 2 l RNasin (80 units), and 2 l reverse transcriptase (400 units) are added and the reaction is incubated at 37° C. for 30 minutes. To stop the reaction, 5 l of 3 M sodium acetate, pH 5, and 150 l absolute ethanol are added. The tube is left at −20° C. for 30 minutes, the precipitate is collected by centrifugation, washed with 80% ethanol and allowed to air-dry. The precipitate is resuspended in 10-20 l of loading dye (90% formamide, 0.05% bromophenol blue, 0.05% xylene cyanol, 1 mM EDTA) and the extension products are separated on a 6% sequencing gel (Maniatis, T. et al., supra). Extension products are visualized by autoradiography.\nPlant materials induced and harvested as in Examples 140 to 142 are assayed for the induction of mRNA species by the isolation of RNA and the primer extension assay as described in Example 6.\nThe level of mRNA is proportional to the amount of regulator applied."}},
  "data": [
    {"smiles": "COC(=O)c1cc(Cl)nc(Cl)c1", "note": "[MDCINA, Methyl 2,6-dichloroisonicotinate]", "values": [
      {"measurement": "ELISA ASSAY RESULTS (ug chitinase/g tissue)", "setting": "[1]; line Bam-1 (2001/BamChit), leaves harvested after seven days, water 0.066, buffer —", "result": "—"},
      {"measurement": "ELISA ASSAY RESULTS (ug chitinase/g tissue)", "setting": "[1]; line Bam-3 (2001/BamChit), seven days, water —, buffer —", "result": "—"},
      {"measurement": "ELISA ASSAY RESULTS (ug chitinase/g tissue)", "setting": "[1]; line Bam-4 (2001/BamChit), seven days, water —, buffer —", "result": "—"},
      {"measurement": "ELISA ASSAY RESULTS (ug chitinase/g tissue)", "setting": "[1]; line Bam-8 (2001/BamChit), seven days, water —, buffer —", "result": "—"},
      {"measurement": "ELISA ASSAY RESULTS (ug chitinase/g tissue)", "setting": "[1]; line Bam-9 (2001/BamChit), seven days, water —, buffer —", "result": "—"},
      {"measurement": "ELISA ASSAY RESULTS (ug chitinase/g tissue)", "setting": "[1]; line Bam-10 (2001/BamChit), seven days, water 0.059, buffer 0.084", "result": 2.378, "unit": "ug chitinase/g tissue"},
      {"measurement": "ELISA ASSAY RESULTS (ug chitinase/g tissue)", "setting": "[1]; line Bam-12 (2001/BamChit), seven days, water —, buffer —", "result": "—"},
      {"measurement": "ELISA ASSAY RESULTS (ug chitinase/g tissue)", "setting": "[1]; line Bam-14 (2001/BamChit), seven days, water —, buffer —", "result": "—"},
      {"measurement": "ELISA ASSAY RESULTS (ug chitinase/g tissue)", "setting": "[1]; line Bam-15 (2001/BamChit), seven days, water —, buffer —", "result": "—"},
      {"measurement": "ELISA ASSAY RESULTS (ug chitinase/g tissue)", "setting": "[1]; line Bam-16 (2001/BamChit), seven days, water —, buffer —", "result": 0.864, "unit": "ug chitinase/g tissue"},
      {"measurement": "ELISA ASSAY RESULTS (ug chitinase/g tissue)", "setting": "[1]; line Bam-17 (2001/BamChit), seven days, water —, buffer —", "result": "—"},
      {"measurement": "ELISA ASSAY RESULTS (ug chitinase/g tissue)", "setting": "[1]; line Bam-19 (2001/BamChit), seven days, water —, buffer —", "result": "—"},
      {"measurement": "ELISA ASSAY RESULTS (ug chitinase/g tissue)", "setting": "[1]; line Bam-21 (2001/BamChit), seven days, water —, buffer —", "result": "—"},
      {"measurement": "ELISA ASSAY RESULTS (ug chitinase/g tissue)", "setting": "[1]; line Bam-23 (2001/BamChit), seven days, water —, buffer —", "result": "—"},
      {"measurement": "ELISA ASSAY RESULTS (ug chitinase/g tissue)", "setting": "[1]; line Bam-24 (2001/BamChit), seven days, water —, buffer —", "result": "—"},
      {"measurement": "ELISA ASSAY RESULTS (ug chitinase/g tissue)", "setting": "[1]; line Bam-25 (2001/BamChit), seven days, water —, buffer —", "result": "—"},
      {"measurement": "ELISA ASSAY RESULTS (ug chitinase/g tissue)", "setting": "[1]; line Bam-26 (2001/BamChit), seven days, water —, buffer —", "result": "—"},
      {"measurement": "ELISA ASSAY RESULTS (ug chitinase/g tissue)", "setting": "[1]; line Nco-2 (2001/NcoChit), seven days, water —, buffer —", "result": "—"},
      {"measurement": "ELISA ASSAY RESULTS (ug chitinase/g tissue)", "setting": "[1]; line Nco-3 (2001/NcoChit), seven days, water —, buffer —", "result": "—"},
      {"measurement": "ELISA ASSAY RESULTS (ug chitinase/g tissue)", "setting": "[1]; line Nco-5 (2001/NcoChit), seven days, water —, buffer —", "result": "—"},
      {"measurement": "ELISA ASSAY RESULTS (ug chitinase/g tissue)", "setting": "[1]; line Nco-8 (2001/NcoChit), seven days, water —, buffer —", "result": "—"},
      {"measurement": "ELISA ASSAY RESULTS (ug chitinase/g tissue)", "setting": "[1]; line Nco-9 (2001/NcoChit), seven days, water —, buffer —", "result": "—"},
      {"measurement": "ELISA ASSAY RESULTS (ug chitinase/g tissue)", "setting": "[1]; line Nco-10 (2001/NcoChit), seven days, water —, buffer —", "result": "—"},
      {"measurement": "ELISA ASSAY RESULTS (ug chitinase/g tissue)", "setting": "[1]; line Nco-11 (2001/NcoChit), seven days, water —, buffer —", "result": "—"},
      {"measurement": "ELISA ASSAY RESULTS (ug chitinase/g tissue)", "setting": "[1]; line Nco-15 (2001/NcoChit), seven days, water —, buffer —", "result": "—"},
      {"measurement": "ELISA ASSAY RESULTS (ug chitinase/g tissue)", "setting": "[1]; line Nco-16 (2001/NcoChit), seven days, water 0.555, buffer 0.566", "result": 0.286, "unit": "ug chitinase/g tissue"},
      {"measurement": "ELISA ASSAY RESULTS (ug chitinase/g tissue)", "setting": "[1]; line Nco-17 (2001/NcoChit), seven days, water —, buffer —", "result": "—"},
      {"measurement": "ELISA ASSAY RESULTS (ug chitinase/g tissue)", "setting": "[1]; line Sal-2 (2001/SalChit), seven days, water —, buffer —", "result": "—"},
      {"measurement": "ELISA ASSAY RESULTS (ug chitinase/g tissue)", "setting": "[1]; line Sal-3 (2001/SalChit), seven days, water —, buffer —", "result": 0.047, "unit": "ug chitinase/g tissue"},
      {"measurement": "ELISA ASSAY RESULTS (ug chitinase/g tissue)", "setting": "[1]; line Sal-4 (2001/SalChit), seven days, water —, buffer —", "result": "—"},
      {"measurement": "ELISA ASSAY RESULTS (ug chitinase/g tissue)", "setting": "[1]; line Sal-5 (2001/SalChit), seven days, water —, buffer —", "result": "—"},
      {"measurement": "ELISA ASSAY RESULTS (ug chitinase/g tissue)", "setting": "[1]; line Sal-7 (2001/SalChit), seven days, water —, buffer —", "result": "—"},
      {"measurement": "ELISA ASSAY RESULTS (ug chitinase/g tissue)", "setting": "[1]; line Sal-8 (2001/SalChit), seven days, water —, buffer —", "result": "—"},
      {"measurement": "ELISA ASSAY RESULTS (ug chitinase/g tissue)", "setting": "[1]; line Sal-9 (2001/SalChit), seven days, water —, buffer —", "result": "—"},
      {"measurement": "ELISA ASSAY RESULTS (ug chitinase/g tissue)", "setting": "[1]; line Sal-11 (2001/SalChit), seven days, water —, buffer —", "result": "—"},
      {"measurement": "ELISA ASSAY RESULTS (ug chitinase/g tissue)", "setting": "[1]; line Sal-12 (2001/SalChit), seven days, water —, buffer —", "result": "—"},
      {"measurement": "ELISA ASSAY RESULTS (ug chitinase/g tissue)", "setting": "[1]; line Sal-13 (2001/SalChit), seven days, water —, buffer —", "result": "—"},
      {"measurement": "ELISA ASSAY RESULTS (ug chitinase/g tissue)", "setting": "[1]; line Sal-14 (2001/SalChit), seven days, water —, buffer —", "result": "—"},
      {"measurement": "ELISA ASSAY RESULTS (ug chitinase/g tissue)", "setting": "[1]; line Sal-15 (2001/SalChit), seven days, water —, buffer —", "result": "—"},
      {"measurement": "level of mRNA of the chimeric gene (GUS, AHAS or BT primer), primer extension assay", "setting": "[2]", "result": "elevated levels of mRNA"}
    ]}
  ]
}
